# According to patent US8101768B2, “Cyclic amine compound and pest control agent” (Nippon Soda Co., Ltd., priority 2004, dated 2012):
# System: organophosphorous agent resistant two-spotted spider mites
# Test: Effect on Two-spotted Spider Mite (spray on kidney bean leaves)
# Type: in vivo
# Conditions: 125 ppm, water dispersible powder of Formulation Example 1 sprayed, 17 female adults, 25° C., 65% humidity, 3 days
# Text: Effect on Two-spotted Spider Mite
# 17 female adults of organophosphorous agent resistant two-spotted spider mites were inoculated onto the first leaves of kidney beans seeded onto 3.5 inch pots and germinated 7 to 10 days before, onto which each of liquid agents, diluted with water so as to adjust the respective concentration of the chemical compounds to 125 ppm according to the formulation of the water dispersible powder shown in the aforementioned Formulation Example 1, was sprayed. After they were left in a thermostatic chamber at 25° C. in 65% humidity for 3 days, the rate of killed adults was investigated. The examination was repeated twice. As the results, the following chemical compounds killed 100% of the adults.
row,SMILES,rate of killed adults
1,"COCOc1cc(C(F)(F)F)ccc1OC1CC2CCC(C1)N2c1ccc(C(F)(F)F)cn1 (stereo not drawn) [2-102, 3α-[2-methoxymethoxy-4-(trifluoromethyl)phenoxy]-8-[5-(trifluoromethyl)-2-pyridyl]-8-azabicyclo[3.2.1]octane]",100%
2,C#CCOc1cc(C(F)(F)F)ccc1OC1CCN(c2ccc(C(F)(F)F)cn2)CC1 [1-163],100%
3,CS(=O)(=O)Oc1cc(C(F)(F)F)ccc1OC1C2CCC1CN(c1ccc(C(F)(F)F)cn1)C2 (stereo not drawn) [5-161],100%
4,CC(C)OC(=O)c1cc(C(F)(F)F)ccc1OC1CC2CCC(C1)N2c1ccc(C(F)(F)F)cn1 (stereo not drawn) [2-196],100%
5,CCN(C)C(=O)c1cc(C(F)(F)F)ccc1O[C@@H]1[C@@H]2CC[C@H]1CN(c1ccc(C(F)(F)F)cn1)C2 [5-249],100%
6,CC(C)(C)C(=O)Oc1cc(C(F)(F)F)ccc1OC1CC2CCC(C1)N2c1ccc(C(F)(F)F)cn1 (stereo not drawn) [2-150],100%
7,CCCOc1cc(C(F)(F)F)cc(Cl)c1OC1CC2CCC(C1)N2c1ccc(C(F)(F)F)cn1 (stereo not drawn) [2-95],100%
8,CCCC(=O)c1cc(C(F)(F)F)ccc1OC1C2CCC1CN(c1ccc(C(F)(F)F)cn1)C2 (stereo not drawn) [5-240],100%
9,FC(F)(F)c1ccc(N2CC3CCC(C2)C3Oc2ccc(C(F)(F)F)cc2OCCCl)nc1 (stereo not drawn) [5-147],100%
10,Cc1ccc(OC2CCN(c3ccc(C(F)(F)F)cn3)CC2)c(C)c1 [1-44],100%
11,CCC(=O)c1cc(C(F)(F)F)ccc1OC1CCN(c2ccc(C(F)(F)F)cn2)CC1 [1-179],100%
12,FC(F)(F)c1ccc(N2CC3CCC(C2)C3Oc2ccc(C(F)(F)F)cc2OCc2ccoc2)nc1 (stereo not drawn) [5-207],100%
13,Cc1noc(-c2cc(C(F)(F)F)ccc2OC2CC3CCC(C2)N3c2ccc(C(F)(F)F)cn2)n1 (stereo not drawn) [2-200],100%
14,CC(Br)COc1cc(C(F)(F)F)ccc1OC1CC2CCC(C1)N2c1ccc(C(F)(F)F)cn1 (stereo not drawn) [2-195],100%
15,CON=C(C)COc1cc(C(F)(F)F)ccc1OC1C2CCC1CN(c1ccc(C(F)(F)F)cn1)C2 (stereo not drawn) [5-184],100%
16,N#Cc1ccc(OC2CCN(c3ccc(C(F)(F)F)cn3)CC2)cc1 [1-29],100%
17,FC(F)(F)c1ccc(N2CCC(Oc3ccc(C(F)(F)F)cc3OCCBr)CC2)nc1 [1-139],100%
18,CC(C)(O)COc1cc(C(F)(F)F)ccc1OC1C2CCC1CN(c1ccc(C(F)(F)F)cn1)C2 (stereo not drawn) [5-129],100%
19,"COc1cc(C(F)(F)F)ccc1OC1CC2CCC(C1)N2c1ccc(C(F)(F)F)cn1 (stereo not drawn) [2-77, 3α-[2-methoxy-4-(trifluoromethyl)phenoxy]-8-[5-(trifluoromethyl)-2-pyridyl]-8-azabicyclo[3.2.1]octane]",100%
20,"CC(C)=COc1cc(C(F)(F)F)ccc1O[C@H]1C[C@H]2CC[C@@H](C1)N2c1ccc(C(F)(F)F)cn1 [2-245, 3α-[2-(2-methylpropenyloxy)-4-(trifluoromethyl)phenoxy]-8-[5-(trifluoromethyl)-2-pyridyl]-8-azabicyclo[3.2.1]octane]",100%
21,CC(=O)OC(CC(C)C)c1cc(C(F)(F)F)ccc1O[C@@H]1[C@@H]2CC[C@H]1CN(c1ccc(C(F)(F)F)cn1)C2 (stereo partly drawn) [5-258],100%

row,SMILES,rate of killed adults
1,OCCOc1cc(C(F)(F)F)ccc1OC1CCN(c2ccc(C(F)(F)F)cn2)CC1 [1-118],100%
2,Cc1cnc(-c2cc(C(F)(F)F)ccc2OC2CC3CCC(C2)N3c2ccc(C(F)(F)F)cn2)o1 (stereo not drawn) [2-205],100%
3,CCCOc1cc(C(F)(F)F)ccc1OC1CC2CCC(C1)N2c1ccc(C)cn1 (stereo not drawn) [2-89],100%
4,CCCOc1cc(C(F)(F)F)ccc1OC1CCN(c2ccc(C(F)(F)F)cn2)CC1CCC (stereo not drawn) [1-192],100%
5,CCCCC(O)c1cc(C(F)(F)F)ccc1OC1C2CCC1CN(c1ccc(C(F)(F)F)cn1)C2 (stereo not drawn) [5-238],100%
6,CC(C)C(C)OC(=O)c1cc(C(F)(F)F)ccc1OC1CC2CCC(C1)N2c1ccc(C(F)(F)F)cn1 (stereo not drawn) [2-232],100%
7,CS(=O)(=O)Oc1cc(C(F)(F)F)ccc1OC1CC2CCC(C1)N2c1ccc(C(F)(F)F)cn1 (stereo not drawn) [2-151],100%
8,COCC(C)Oc1cc(C(F)(F)F)ccc1OC1CC2CCC(C1)N2c1ccc(C(F)(F)F)cn1 (stereo not drawn) [2-178],100%
9,FC(F)(F)c1ccc(N2CC3CCC(C2)C3Oc2ccc(C(F)(F)F)cc2OCC2CCCO2)nc1 (stereo not drawn) [5-204],100%
10,CCCOc1cc(C#N)ccc1O[C@@H]1[C@@H]2CC[C@H]1CN(c1ccc(C(F)(F)F)cn1)C2 [5-102],100%
11,COC(C)COc1cc(C(F)(F)F)ccc1OC1C2CCC1CN(c1ccc(C(F)(F)F)cn1)C2 (stereo not drawn) [5-128],100%
12,"FC(F)(F)c1ccc(N2C3CCC2CC(Oc2ccc(C(F)(F)F)cc2C2OCCO2)C3)nc1 (stereo not drawn) [2-169, 3α-{2-([1,3]dioxolane-yl)-4-(trifluoromethyl)phenoxy}-8-[5-(trifluoromethyl)-2-pyridyl]-8-azabicyclo[3.2.1]octane]",100%
13,C=CCc1cc(C(F)(F)F)ccc1O[C@@H]1[C@@H]2CC[C@H]1CN(c1ccc(C(F)(F)F)cn1)C2 [5-75],100%
14,COC(C)COc1cc(C(F)(F)F)ccc1OC1CC2CCC(C1)[N+]2([O-])c1ccc(C(F)(F)F)cn1 (stereo not drawn) [2-174],100%
15,CC(O)COc1cc(C(F)(F)F)ccc1OC1C2CCC1CN(c1ccc(C(F)(F)F)cn1)C2 (stereo not drawn) [5-127],100%
16,CC1CN=C(c2cc(C(F)(F)F)ccc2OC2CC3CCC(C2)N3c2ccc(C(F)(F)F)cn2)O1 (stereo not drawn) [2-201],100%
17,CC#CCOc1cc(C(F)(F)F)ccc1OC1C2CCC1CN(c1ccc(C(F)(F)F)cn1)C2 (stereo not drawn) [5-232],100%
18,FC(F)(F)c1ccc(N2CC3CCC(C2)C3Oc2ccc(C(F)(F)F)cc2OCc2cccs2)nc1 (stereo not drawn) [5-209],100%
19,CON=Cc1cc(C(F)(F)F)ccc1OC1CC2CCC(C1)N2c1ccc(C(F)(F)F)cn1 (stereo not drawn) [2-211],100%
20,CCCOc1cc(C#N)ccc1OC1CC2CCC(C1)N2c1ccc(C(F)(F)F)cn1 (stereo not drawn) [2-81],100%
21,FC(F)(F)c1ccc(N2CC3CCC(C2)C3Oc2ccc(C(F)(F)F)cc2OCc2ccccn2)nc1 (stereo not drawn) [5-212],100%

row,SMILES,rate of killed adults
1,FC(F)COc1cc(C(F)(F)F)ccc1OC1CC2CCC(C1)N2c1ccc(C(F)(F)F)cn1 (stereo not drawn) [2-246],100%
2,CCCOC(=O)c1cc(C(F)(F)F)ccc1O[C@@H]1[C@@H]2CC[C@H]1CN(c1ccc(C(F)(F)F)cn1)C2 [5-244],100%
3,FC(F)(F)c1ccc(N2CCC(Oc3ccc(C(F)(F)F)cc3COC3CCCO3)CC2)nc1 (stereo not drawn) [1-180],100%
4,CC(COc1cc(C(F)(F)F)ccc1OC1C2CCC1CN(c1ccc(C(F)(F)F)cn1)C2)=NO (stereo not drawn) [5-183],100%
5,"C=C(C)COc1cc(C(F)(F)F)ccc1OC1CC2CCC(C1)N2c1ccc(C(F)(F)F)cn1 (stereo not drawn) [2-147, 3α-[2-(2-methylallyloxy)-4-(trifluoromethyl)phenoxy]-8-[5-(trifluoromethyl)-2-pyridyl]-8-azabicyclo[3.2.1]octane]",100%
6,CC(C)(C)OC(=O)c1cc(C(F)(F)F)ccc1OC1CC2CCC(C1)N2c1ccc(C(F)(F)F)cn1 (stereo not drawn) [2-198],100%
7,CC(C)Oc1cc(C(F)(F)F)ccc1OC1CC2CCC(C1)N2c1ccc(C(F)(F)F)cn1 (stereo not drawn) [2-96],100%
8,FC(F)(F)c1ccc(N2CC3CCC(C2)C3Oc2ccc(C(F)(F)F)cc2OCC2CCCO2)nc1 (stereo not drawn) [5-214],100%
9,FC(F)(F)c1ccc(N2C[C@H]3CC[C@@H](C2)[C@@H]3Oc2ccc(C(F)(F)F)cc2OCc2ccccc2)nc1 [5-106],100%
10,Cc1cc(C)c(OC2CCN(c3ccc(C(F)(F)F)cn3)CC2)c(C)c1 [1-47],100%
11,CC=Cc1cc(C(F)(F)F)ccc1OC1CCN(c2ccc(C(F)(F)F)cn2)CC1 [1-73],100%
12,CCC1COC(c2cc(C(F)(F)F)ccc2OC2CC3CCC(C2)N3c2ccc(C(F)(F)F)cn2)=N1 (stereo not drawn) [2-220],100%
13,COCCOc1cc(C(F)(F)F)ccc1OC1CC2CCC(C1)N2c1ccc(C(F)(F)F)cn1 (stereo not drawn) [2-112],100%
14,FC(F)(F)c1ccc(N2CC3CCC(C2)C3Oc2ccc(C(F)(F)F)cc2OCC2CCOC2)nc1 (stereo not drawn) [5-205],100%
15,FC(F)(F)c1ccc(N2CCC(Oc3ccc(C(F)(F)F)cc3CCl)CC2)nc1 [1-81],100%
16,CC(CBr)OC(=O)c1cc(C(F)(F)F)ccc1OC1CC2CCC(C1)N2c1ccc(C(F)(F)F)cn1 (stereo not drawn) [2-236],100%
17,CCCOc1cc(C(F)(F)F)ccc1O[C@@H]1[C@@H]2CC[C@H]1CN(c1ccc(C=O)cn1)C2 [5-100],100%
18,"CCCC(O)c1cc(C(F)(F)F)ccc1OC1CC2CCC(C1)N2c1ccc(C(F)(F)F)cn1 (stereo not drawn) [2-184, 3α-[2-(1-hydroxybutyl)-4-(trifluoromethyl)phenoxy]-8-[5-(trifluoromethyl)-2-pyridyl]-8-azabicyclo[3.2.1]octane]",100%
19,"CC(C)=NOc1cc(C(F)(F)F)ccc1OC1CC2CCC(C1)N2c1ccc(C(F)(F)F)cn1 (stereo not drawn) [2-212, 3α-[2-isopropylideneaminoxy-4-(trifluoromethyl)phenoxy]-8-[5-(trifluoromethyl)-2-pyridyl]-8-azabicyclo[3.2.1]octane]",100%
20,CCC(Cl)c1cc(C(F)(F)F)ccc1OC1CCN(c2ccc(C(F)(F)F)cn2)CC1 (stereo not drawn) [1-82],100%
21,FC(F)(F)c1ccc(N2CC3CCC(C2)C3Oc2ccc(C(F)(F)F)cc2OCc2ccsc2)nc1 (stereo not drawn) [5-208],100%
